Measured values taken from patent US20240391870A1 (Arcturus Therapeutics, Inc., priority 2023, published 2024).

What was measured:
hEPO = hEPO mRNA expression evaluation (hEPO-LNPs); assay type: in vivo, Balb/c mice; settings: Table 2; 0.1 mpk i.v., serum hEPO after 6 hr
Method: Protocol for hEPO mRNA Expression Evaluation
Lipid formulations comprising a hEPO mRNA below were evaluated for their ability to express hEPO in vivo according to the protocol of this example. All animal experiments were conducted using institutionally-approved protocols (IACUC). In this protocol, female Balb/c mice at least 6-8 weeks of age were purchased from Charles River Laboratory. […] After 6 hr, blood was collected with serum separation tubes, and the serum was isolated by centrifugation. Serum hEPO levels were then measured using an ELISA assay (Human Erythropoietin Quantikine IVD ELISA Kit, R&D Systems, Minneapolis, MD).

Mouse plasma stability = assay type: in vitro ADME, CD-1 mouse; settings: Table 2, mouse plasma 37 C, 1 uM lipid
Method: Lipid stock solution was prepared by dissolution of the lipid in isopropanol at the concentration of 5 mg/mL. A requisite volume of the lipid-isopropanol solution was then diluted to 100 μM concentration at a total volume of 1.0 mL with in 50:50 (v/v) ethanol/water. Ten microliters of this 100 μM solution was spiked into 1.0 mL of mouse plasma (BioIVT, Cat. No.: MSE00PLNHUNN, CD-1 mouse, anticoagulant: sodium heparin, not filtered) that was pre-warmed to 37° C. and was stirred at 50 rpm with a magnetic stir bar. The starting concentration of lipids in plasma was thus 1 μM. At time points 0, 15, 30, 45, 60 and 120 min, 0.1 mL of the plasma was withdrawn from the reaction mixture and the protein was precipitated by adding 0.9 mL of ice-cold 4:1 (v/v) acetonitrile/methanol with 1 μg/mL of a selected internal standard lipid added. After filtration through a 0.45 micron 96-well filtering plate, the filtrates were analyzed by LC-MS (Thermo Fisher's Vanquish UHPLC—LTQ XL linear ion trap Mass Spectrometer); Waters XBridge BEH Shield RP18 2.5 micron (2.1×100 mm) column with its matching guard column. Mobile phase A was 0.1% formic acid in water, and mobile phase B was 0.1% formic acid in 1:1 (v/v) acetonitrile/methanol. Flow rate was 0.5 ml/min. Elution gradient was: Time 0-1 min: 10% B; 1-6 min: 10%-95% B; 6-8.5 min: 95% B; 8.5-9 min: 95%-10% B; 9-10 min: 10% B. Mass spectrometry was in positive scanning mode from 600-1100 m/z. The peak of the molecular ion of the lipids was integrated in the extracted ion chromatography (XIC) using Xcalibur software (Thermo Fisher). The relative peak area compared to T=0, after normalization by the peak area of the internal standard, was used as the percentage of the lipid remaining at each time point. T1/2 values were calculated using the first-order decay model.

factor VII = assay: Factor VII knock down evaluation (LNP with FVII siRNA); assay type: in vivo, Balb/C mice; settings: Table 2, plasma FVII after 48 h vs saline control; for FVII KD % 0.01 mpk: 0.01 mpk i.v.; for FVII KD % 0.03 mpk: 0.03 mpk i.v.
Method: Lipid formulations comprising a FVII siRNA further described below were evaluated for their knockdown activity using the protocol of this example. In the FVII evaluation, seven to eight week-old, female Balb/C mice were purchased from Charles River Laboratories (Hollister, CA). The mice were held in a pathogen-free environment and all procedures involving the mice were performed in accordance with guidelines established by the Institutional Animal Care and Use Committee (IACUC). Lipid nanoparticles containing factor VII siRNA were administered intravenously at a dosing volume of 10 mL/kg and two dose levels (0.03 and 0.01 mg/kg). After 48 h, the mice were anesthetized with isoflurane and blood was collected retro-orbitally into Microtainer® tubes coated with 0.109 M sodium citrate buffer (BD Biosciences, San Diego, CA) and processed to plasma. Plasma specimens were tested for factor VII levels immediately or stored at −80° C. for later analysis. Measurement of FVII protein in plasma was determined using the colorimetric Biophen VII assay kit (Aniara Diagnostica, USA). Absorbance was measured at 405 nm and a calibration curve was generated using the serially diluted control plasma to determine levels of factor VII in plasma from treated animals, relative to the saline-treated control animals.

[1] = In vivo biodegradability assay (lipid in liver); settings: Table 2, mouse liver, 48 h
Method: In vivo biodegradability assay was performed to assess the biodegradability of lipids in the LNP. Briefly, mice were injected with either 0.1 or 0.03 mg/Kg dose and after 24 or 48 hours mice livers were collected. To measure the concentration of lipids in the mouse liver, liver samples were homogenized in appropriate buffer in 1-10 dilution and mixed with the same amount of stabilized plasma. The samples were then mixed with organic solvents spiked with internal standard to precipitate proteins. After centrifugation, supernatant was diluted further with organic solvent before sample analysis by LC-MS. In LC-MS analysis, positive electrospray ionization was used, and multiple reaction monitoring (MRM) parameters were set up to specifically target the lipid analyte and internal standard. Calibration standards were prepared in stabilized plasma and mixed with same amount of homogenization buffer before protein precipitation. Quality control samples with known amounts of lipid was prepared in blank liver homogenate to monitor the precision and accuracy of the assay.

Compound	EPO exprssn (ng/mL) 0.1 mpk (hEPO) [ng/mL]	Percent remaining in mouse plasma after 2 h (Mouse plasma stability) [%]	FVII KD % 0.01 mpk (factor VII) [%]	FVII KD % 0.03 mpk (factor VII) [%]	In vivo degradability (ng/tissue) at 48h 0.03 mpk [1]	In vivo degradability (ng/tissue) at 48h 0.1 mpk [1]
CCCCCCCC(=O)OCC(C)(COC(=O)CCCCCCC)COC(=O)CCN(CCC(=O)OCC(C)(COC(=O)CCCCCCC)COC(=O)CCCCCCC)C(=O)SCCCN(C)C [LIPID 24]	1420	100	60.5	87.4	BLOQ	BLOQ
CC1CCC(CC(=O)OCC(C)(COC(=O)CCN(CCC(=O)OCC(C)(COC(=O)CC2CCC(C)CC2)COC(=O)CC2CCC(C)CC2)C(=O)SCCCN(C)C)COC(=O)CC2CCC(C)CC2)CC1 (stereo not drawn) [LIPID 21]	1028	100	57	90	<340 ng/tissue	<340 ng/tissue
CCCCCCC(C)C(=O)OCC(COC(=O)C(C)CCCCCC)OC(=O)CCCN(CCCC(=O)OC(COC(=O)C(C)CCCCCC)COC(=O)C(C)CCCCCC)C(=O)NCCCN(C)C (stereo not drawn) [LIPID 36, [2-[4-[3-(dimethylamino)propylcarbamoyl-[4-[2-(2-methyloctanoyloxy)-1-(2-methyloctanoyloxymethyl)ethoxy]-4-oxo-butyl]amino]butanoyloxy]-3-(2-methyloctanoyloxy)propyl]2-methyloctanoate]	0		0	0		
CN(C)CCCSC(=O)N(CCCC(=O)OC(COC(=O)C1CCC2CCCC2C1)COC(=O)C1CCC2CCCC2C1)CCCC(=O)OC(COC(=O)C1CCC2CCCC2C1)COC(=O)C1CCC2CCCC2C1 (stereo not drawn) [LIPID 30, ((4,4′-((((3-(dimethylamino)propyl)thio)carbonyl)azanediyl)bis (butanoyl))bis(oxy))bis(propane-2,1,3-triyl)tetrakis(octahydro-1H-indene-5-carboxylate)]	95	100	3.2	62.1	BLOQ	BLOQ
CCCCCCCCC(=O)OCC(COC(=O)CCCCCCCC)COC(=O)CCN(CCC(=O)OCC(COC(=O)CCCCCCCC)COC(=O)CCCCCCCC)C(=O)SCCN(C)C [LIPID 26]	70	100	8	50	BLOQ	BLOQ
CN(C)CCCSC(=O)N(CCCC(=O)OC(COC(=O)C1CC2CCCCC2C1)COC(=O)C1CC2CCCCC2C1)CCCC(=O)OC(COC(=O)C1CC2CCCCC2C1)COC(=O)C1CC2CCCCC2C1 (stereo not drawn) [LIPID 28]	216	100	26	75.3	BLOQ	BLOQ
CCC1CCC(C(=O)OCC(C)(COC(=O)CCN(CCC(=O)OCC(C)(COC(=O)C2CCC(CC)CC2)COC(=O)C2CCC(CC)CC2)C(=O)SCCCN(C)C)COC(=O)C2CCC(CC)CC2)CC1 (stereo not drawn) [LIPID 22]	1104	100	56	87	<340 ng/tissue	<340 ng/tissue
CCCCC(C)(C)CC(=O)OCC(C)(COC(=O)CCN(CCC(=O)OCC(C)(COC(=O)CC(C)(C)CCCC)COC(=O)CC(C)(C)CCCC)C(=O)SCCCN(C)C)COC(=O)CC(C)(C)CCCC [LIPID 23]	730	100	17	61.7	<340 ng/tissue	<340 ng/tissue
CC1CCC(CCC(=O)OCC(COC(=O)CCC2CCC(C)CC2)COC(=O)CCN(CCC(=O)OCC(COC(=O)CCC2CCC(C)CC2)COC(=O)CCC2CCC(C)CC2)C(=O)SCCCN(C)C)CC1 (stereo not drawn) [LIPID 27]	69	100	48.1	84.9	BLOQ	BLOQ
CCCCCCCCC(=O)OCC(COC(=O)CCCCCCCC)COC(=O)CCCN(CCCC(=O)OCC(COC(=O)CCCCCCCC)COC(=O)CCCCCCCC)C(=O)SCCCN(C)C [LIPID 25]	2945	100	63	95	BLOQ	BLOQ
CCCCCCC(C)C(=O)OCC(COC(=O)C(C)CCCCCC)OC(=O)CCCN(CCCC(=O)OC(COC(=O)C(C)CCCCCC)COC(=O)C(C)CCCCCC)C(=O)OCCCN(C)C (stereo not drawn) [LIPID 35, [2-[4-[3-(dimethylamino)propoxycarbonyl-[4-[2-(2-methyloctanoyloxy)-1-(2-methyloctanoyloxymethyl)ethoxy]-4-oxo-butyl]amino]butanoyloxy]-3-(2-methyloctanoyloxy)propyl]2-methyloctanoate]	678		68.5	84		
CC1CCC(CCC(=O)OCC(C)(COC(=O)CCC2CCC(C)CC2)COC(=O)CCN(CCC(=O)OCC(C)(COC(=O)CCC2CCC(C)CC2)COC(=O)CCC2CCC(C)CC2)C(=O)SCCCN(C)C)CC1 (stereo not drawn) [LIPID 20]	1148	100	36	74	<340 ng/tissue	<340 ng/tissue
Cc1ccc(CCC(C)C(=O)OCC(COC(=O)C(C)CCc2ccc(C)cc2)OC(=O)CCCN(CCCC(=O)OC(COC(=O)C(C)CCc2ccc(C)cc2)COC(=O)C(C)CCc2ccc(C)cc2)C(=O)SCCCN(C)C)cc1 (stereo not drawn) [LIPID 41, ((4,4′-((((3-(dimethylamino)propyl)thio)carbonyl)azanediyl)bis (butanoyl))bis(oxy))bis(propane-2,1,3-triyl)tetrakis(2-methyl-4-(p-tolyl)butanoate)]	1209		56	76		
